Assay results: US20220031740A1, “THERAPEUTIC USES OF ATOMIC QUANTUM CLUSTERS” (priority 2018, published 2022)

Columns and labels:
E. Co/i = test: E. coli survival with Ag5-AQC and DTT; format: cell-based; details: DTT at 10 mM
Source text: The mechanism responsible is thought to be thiol oxidation. […] The opposite is also true, i.e. Ag5-AQCs rescue E. Co/i from DTT action as expected from to redox agents with opposed action.

[1] = tested on: A549luc orthotopic lung tumour and mediastinal lymph node metastases; test: A549luc orthotopic lung cancer model metastasizing to mediastinal lymph nodes; format: in vivo
Method: (a) Ag5-AQCs cause a reduction in tumour growth in mice with orthotopic brain cancer. Experimental groups: Ag5-AQCs (0.25 mg/kg) and control (no treatment). (b-d) Ag5-AQCs treatment causes a reduction in tumour growth in mice with orthotopic lung cancer. (b) Tumour growth measured in vivo by luminescence (IVIS® Spectrum). Black arrows represent treatment administration times in the study. (c) Luciferase activity quantification measured ex vivo in lung and in mediastinal lymph nodes. (d) Immunohistochemical staining of lung tumour (arrows indicate the tumour nodules). Experimental groups: CDDP (4 mg/kg), Ag5-AQCs (0.25 mg/kg) and control (no treatment). (e) Body weight over the whole experiment. […]
For Ag5-AQCs treatment, mice were divided into three groups (5 animals in each): the first group (control) underwent no treatment, the second group was treated with cisplatin (CDDP) (four single doses, 4 mg/kg) and the third group was treated with Ag5-AQCs (four single doses, 0.25 mg/kg). […] The lung and mediastinal lymph nodes were removed and luminescence was quantified per microgram of protein in body as described in Borrajo et al. (2016). […]
Another limiting factor in cancer treatment is the occurrence of metastasis. […] In this model the occurrence of metastasis to lymph nodes is well established and could be detected 13 days after the injection of tumour cells. […]

Nrf2 = Nrf2 location by immunofluorescence in HEK293 cells; format: cell-based, human; details: HEK293, 30 minutes; Ag5-AQC IC50, NEM 100 μM

O[C@H](CS)[C@H](O)CS (racemic) [DTT, Dithiothreitol]
E. coli survival, DTT alone (E. Co/i): toxic for bacteria

[NH2][Pt]([NH2])([Cl])[Cl] [CDDP, Cisplatin]
luciferase activity in the primary tumour and in the mediastinal lymph nodes (ex vivo) ([1]; day 37, vs control mice): significant reduction in luciferase activity | tumour size in lung (in vivo bioluminescence) ([1]; intravenously days 20, 22, 24, 26, CDDP 4 mg/kg, Ag5-AQC 0.25 mg/kg, 37 days, vs control): significant reduction in tumour size

CCN1C(=O)C=CC1=O [NEM, N-ethylmaleimide]
Nrf2 staining and nuclear location (Nrf2): increased the nuclear accumulation of Nrf2
